Experiments:
[1] = test system: CD4+ and CD8+ T cells in PBMCs; assay: Intracellular staining for IFNγ and TNFα in CD4+ and CD8+ T cells; assay type: cell-based, human
Procedure: Intracellular staining of cell cultures was performed after PBMCs were stimulated with arginase-derived peptides for 5 hours in the presence of BD GolgiPlug™ (added after the first hour of peptide stimulation). Stimulated cells were stained with fluorescently labeled antibodies for surface markers (CD3, CD4, CD8) and thereafter permeabilized by using Fixation/Permeabilization and Permeabilization Buffer (eBioscience, cat. 00-5123-43), according to manufacturer's instructions. Permeabilized cells were then stained with fluorochrome-labeled antibodies for IFNγ and TNFα. Flow cytometry analysis was performed on a FACSCanto™ II (BD Biosciences). Antibodies used: IFNγ-APC (cat. 341117), TNFα-455 BV421 (cat. 562783), CD4-FITC (cat. 347413), CD8-PerCP (cat. 345774), CD3-APC-H7 (cat. 560275) (all from BD Biosciences), dead cells stain-FVS510 (564406, BD Biosciences) according to manufacturer's instructions.

B16F10 melanoma = assay: Tumour vaccination, B16F10 melanoma tumour model; assay type: in vivo, mouse; details: 100 μg ArgLong2 with Montanide, days 0, 7, 14; FIG. 8
Procedure: (§1) Animals were vaccinated subcutaneously with 100 μg peptide in DMSO/H2O in a 1:1 emulsion with incomplete Montanide ISA 51 VG. Montanide ISA 51 VG+DMSO/H2O served as a control vaccine. For subsequent analysis of the immune response to the ArgLong2 peptide, mice were sacrificed on day 7 and spleen and draining lymph nodes (dLNs) were harvested for ELISPOT setup.
(§2) Each animal was inoculated subcutaneously into the right flank with 0.5×10^6 syngeneic tumour cells in 100 μl media. Both the syngeneic B16 F10 melanoma cells line and the syngeneic MC38 colon adenocarcinoma cell line were used. Vaccinations were initiated on day 0 and repeated once a week (day 7 and day 14). Peptide and control vaccinations were performed as described above.
(§3) Tumour growth was monitored and tumours were measured approximately every second day. Tumour volume was calculated at V [mm^3]=L×W^2/2 (where L is the longest diameter and W perpendicular to L). Maximum tumor size before mice were euthanized was 864 mm^3 (L=12 mm, W=12 mm).

[2] = test system: PBMCs from cancer patients and healthy donors; assay: in vitro IFNγ ELISPOT of PBMCs after 7 days with peptide and IL-2; assay type: cell-based, human
Procedure: PBMCs from healthy donors were isolated using density gradient separation over LymphoprepTM (STEMCELL Technologies) and cryopreserved at -150° C. in FBS supplemented with 10% DMSO. PBMCs from cancer patients were isolated from blood sample a minimum of four weeks after the termination of any anti-cancer therapy. The protocol was approved by the Scientific Ethics Committee for The Capital Region of Denmark and conducted in accordance with the provisions of the Declaration of Helsinki. Written informed consent from the patients was obtained before study entry. […] The sequences of the peptides used in these experiments are shown in full below in alignment with each other, and are also set out in the section entitled “Sequences”). Peptides are described by SEQ ID NO, by name, or by reference to the start and end positions of each peptide sequence within the full length sequence of Arginase 1. Each may be used interchangeably. For example, the peptide of SEQ ID NO: 1 may alternatively be referred to by the name ArgLong2, or may alternatively be referred to as […]-206 (given a start position of 169 and end position of 206). The intended reference in each case will be clear from the context. For in vitro ELISPOT, PBMCs from cancer patients and healthy donors were pulsed with 20 μM of Arginase 1-derived peptides and 120 U/ml IL-2 in 24-well plates for 7 days before being used in an ELISPOT assay. The cells were placed in 96-well nitrocellulose ELISPOT plates (MultiScreen MAIP […]; Millipore) pre-coated with IFNγ capture antibody (Mabtech). Arginase peptides added to a final concentration of 5 μM and plates incubated at 37° C. for 14-16 hours. After the incubation the cells were washed off and secondary biotinylated Ab (Mabtech, cat. 3420-6-1000) was added for 2 hours at room temperature. Unbound secondary antibody was washed off and streptavidin conjugated alkaline phosphatase (AP) (Mabtech, cat. 3310-10) was added for 1 hour at room temperature. Unbound conjugated enzyme was washed off and the assay was developed by adding BCIP/NBT substrate (Mabtech, cat. 3650-10). Developed ELISPOT plates were analyzed on CTL ImmunoSpot S6 Ultimate-V analyzer using Immunospot software v5.1. Responses were reported as the difference between average numbers of spots in wells stimulated with Arginase 1 and wells without added peptide.

[3] = test system: MC38 colon adenocarcinoma; assay: Tumour vaccination, MC38 colon adenocarcinoma tumour model; assay type: in vivo, mouse; details: 100 μg ArgLong2 with Montanide, days 0, 7, 14; p=0.030 Mixed effects analysis; FIG. 7
Procedure: as §1, §2, §3

C57BL/6 mice = assay: Peptide vaccination of C57BL/6 mice, IFNγ ELISPOT of spleen and draining lymph node cells; assay type: in vivo, mouse; details: 100 μg peptide s.c. with Montanide ISA 51 VG; one vaccination; day 7; spleen and dLNs; FIG. 6
Procedure: as §1
Murine immune cells were subjected to ELISPOT analysis. Single cell suspension was prepared from spleen or dLNs by passage through a cell strainer. After lysis of red blood cells, 0.6-0.8×10^6 cells/well were seeded into ELISPOT plates coated with anti-IFNγ antibody. Peptide of interest was added to designated wells and cells were incubated overnight with peptide. The next day, cells were removed, plates washed and incubated with biotinylated detection antibody. Finally, after addition of Streptavidin-ALP and substrate visible spots appear. Each spot corresponds to an individual IFNγ producing cell. Plates were analysed in an Immunospot analyser and plotted.

ISAKDIVYIGLRDVDPGEHYILKTLGIKYFSMTEVDRL (Peptide fragment of human Arginase 1 (ArgLong2)) [38-mer, positions 169-206 of full length human Arginase 1]
ex vivo CD4+ responses, intracellular staining ([1]; PBMCs from two cancer patients (MM27, BC30) without prior peptide stimulation, FIG. 3B left): ex vivo CD4+ responses in PBMCs from both cancer patients | ex vivo CD8+ responses, intracellular staining ([1]; PBMCs from two cancer patients (MM27, BC30) without prior peptide stimulation, FIG. 3B right): ex vivo CD8+ responses in the breast cancer patient PBMCs | CD4+ T cell responses, in vitro intracellular staining ([1]; two healthy donors and one breast cancer patient, one week after stimulation with ArgLong2 and low dose IL-2, FIG. 3A left): detected in one healthy donor and in the breast cancer patient PBMCs | CD8+ T cell responses, in vitro intracellular staining ([1]; two healthy donors and one breast cancer patient, one week after stimulation with ArgLong2 and low dose IL-2, other healthy donor showed only CD8+ response, FIG. 3A right): detected in one healthy donor and in the breast cancer patient PBMCs | tumour growth vs control vaccination, B16 (B16F10 melanoma): significantly delay tumour growth | responses in IFNγ ELISPOT (in words) ([2]; PBMCs from 6 healthy donors, peptide and low dose IL-2 for 1 week, FIG. 1): superior at stimulating T cell responses | peptide specific spots in IFNγ ELISPOT where too numerous to count (TNTC) ([2]; TNTC in six healthy donors and 2 cancer patients, 2.2-5×10^5 PBMCs/well, FIG. 2): > 500 spots | donors with high responses in IFNγ ELISPOT ([2]; out of 6 healthy donors, PBMCs stimulated with peptide and low dose IL-2 for 1 week, FIG. 1): 4 donors | cancer patients showing responses in IFNγ ELISPOT ([2]; out of 16 cancer patients (8 melanoma, 6 multiple myeloma, 1 breast cancer, 1 renal cell carcinoma), strong responses counted for ArgLong2, FIG. 2): 8 cancer patients | healthy donors showing responses in IFNγ ELISPOT ([2]; out of 19 healthy donors, strong responses counted for ArgLong2, FIG. 2): 14 healthy donors | tumour growth vs control vaccination, MC38 [3]: significantly delay tumour growth | immunogenicity in mice (vaccine-specific T cell responses, IFNγ ELISPOT) (C57BL/6 mice): strongly immunogenic
